Test results: US20220220106A1, “QUINOLINE COMPOUNDS AND PHARMACEUTICAL COMPOSITIONS AND USES THEREOF” (Academy of Military Medical Sciences, priority 2019, published 2022)
Where two headings read alike, the source gives them in different places.

Legend:
[1] = system: Enterovirus 71 (EV71) H strain; test: In vitro anti-EV71 activity (antiviral activity in RD cells, CellTiter-Glo); type: cell-based; conditions: for in vitro anti-EV71 activity, in words: EV71, RD cells; for IC50: Enterovirus A, 96 h
Summary of the method: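 RD cells infected with 100TCID50 EV71 in DMEM+2% FBS, with compound in 10-point three-fold dilutions, cultured 4 days at 37° C. Cell viability by CellTiter-Glo luminescence; inhibition rate relative to cell control fitted to S-curve for IC50. TD50 derived likewise; SI=TD50/IC50.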

mTORC2 = biological target: T1, mTORC2 (Homo sapiens, UniProt P42345); test: Western blot, phosphorylation of Ser473 of Akt in RD cells (mTORC2 inhibition); type: cell-based; conditions: 20 μM, 2 hours, Western blot (FIG. 1)
T1 construct: endogenous in cells; host or cells: RD cells
Procedure: In order to test the inhibitory activity of the synthesized compounds on the two mTOR complexes, the inhibitory activity experiments of mTORC1 and mTORC2 were carried out. Since mTORC1 and mTORC2 exerted their function by activating the phosphorylation of downstream substrates, the inhibitory activity of the compounds on mTORC1 and mTORC2 could be determined by detecting the phosphorylation levels of the Thr389 site of mTORC1 downstream substrate p70S6K1 and the Ser473 site of mTORC2 downstream substrate Akt.
Pretreatment of Compound:
(1) RD cells were cultured in DMEM medium containing 10% FBS and 1×PS (penicillin and streptomycin were at concentrations 100 IU and 100 μg/mL, respectively) at 37° C. and 5% CO2.
(2) The RD cells (5×10^5 cells/2 mL medium) were inoculated into a 6-well plate and incubated at 37° C. and 5% CO2 for 24 hours.
(3) The cells were washed once with PBS, and the cells were cultured in serum-free medium without nutrients overnight.
(4) Formulation of compounds: […]
Preparation of insulin medium: Insulin was diluted in DMEM medium containing 10% FBS and 1×PS so that the final concentration of insulin was 167 nM.
Pretreatment of compound to be tested: The compound was dissolved in DMSO so that the concentration of the test compound was 20 mM, and the compound was diluted in 167 nM insulin medium to reach a concentration of 20 μM.
Preparation of rapamycin solution: Rapamycin was dissolved in DMSO to a concentration of 10 mM, and the rapamycin was diluted in 167 nM insulin medium to reach a concentration of 20 μM.
(5) The serum-free medium in each well was removed.
(6) 2 mL of complete medium containing DMSO was added to each well as a control carrier. The final concentration of DMSO was 0.2%.
(7) 2 mL of 20 μM rapamycin solution and 20 μM the compound to be tested were added to the designated wells, respectively. The final concentration of DMSO was 0.2%.
(8) The cells were incubated for 2 hours at 37° C. and 5% CO2.
Protein extraction and concentration determination:
(1) The cells were washed once with refrigerated PBS, and then the PBS was discarded.
(2) 150 μL of cell extraction buffer (RIPA, […], catalog number: C1053) was transferred into each well to lyse the cells, and then the resulting cell solution were incubated on ice for 30 minutes.
(3) Centrifugation was performed at 14000 rpm (13000× g) for 30 minutes at 4° C.
(4) The supernatant was transferred into a new eppendorf tube, and the cell lysate was stored at −80° C. before testing.
(5) The protein concentration was determined by BCA method.
Preparation of Buffer Solutions:
(1) 100× Protease inhibitor (Beyotime, catalog number: P1005): 1 mL of redistilled water was added to the protease inhibitor and stirred gently until the solid was completely dissolved.
(2) Lysis Buffer: […] of 100× protease inhibitor and 2× phosphatase inhibitor Cocktails PhosSTOP (Beyotime, catalog number: P1082) were added to 100 mL of the cell extract, and stirred gently until it was completely dissolved.
(3) Electrophoresis Running Buffer:
10×MOPS buffer: 52.33 g of MOPS, 30.29 g of Tris base, 10 mL of 0.5 mol/L EDTA (pH 8.5) and 5 g of SDS was dissolved in 400 mL of redistilled water, stirred to dissolve, and the pH was adjusted to 7.5, then redistilled water was added again to reach a volume of 500 mL; 1×MOPS: 100 mL of 10×MOPS was diluted with redistilled water to 1000 mL.
(4) 1× Transfer Buffer: […] of 10× transfer buffer (144 g of glucine, 30.3 g of trisbase, and distilled water were mixed to reach a volume of 1 L) and 400 mL of methanol were dissolved in 1500 mL of redistilled water, and then the redistilled water was added to reach a volume of 2000 mL. […]

[2] = EV71 H strain, RD cells, 4 days, CellTiter-Glo, read-out: IC50

| Structure (SMILES) | in vitro anti-EV71 activity, in words [1] | IC50 [1, 2] [nM] | phosphorylation expression level of Akt (mTORC2) | IC50 ([1]; EV71, RD) [nM] |
| --- | --- | --- | --- | --- |
| Nc1cccc(Nc2ccc3ncc4ccc(=O)n(-c5cccc(C(F)(F)F)c5)c4c3c2)n1 [HTL-6-12, 9-[2-(6-aminopyridyl)]imino-2-oxo-1-[3-(trifluoromethyl)phenyl]-1,2-dihydrobenzo[h][1,6]naphthyridine] | moderate activity | 1230 ± 220 | significantly down-regulate | – |
| CN(C)c1ccc(-c2ccc3ncc4ccc(=O)n(-c5cccc(C(F)(F)F)c5)c4c3c2)cn1 [HTL-7-16, 9-[3-(6-N,N-dimethyl)pyridyl]-2-oxo-1-[3-(trifluoromethyl)phenyl]-1,2-dihydrobenzo[h][1,6]naphthyridine] | – | 90 ± 10 | significantly down-regulate | – |
| NC(=O)c1ccc(-c2ccc3ncc4oc(=O)n(-c5cccc(C(F)(F)F)c5)c4c3c2)cc1 [HTL-5-21, 8-(4-carbamoyl)phenyl-1-[3-(trifluoromethyl)phenyl]oxazolo[5,4-c]quinolin-2(1H)-one] | moderate inhibitory activity | 2000 ± 300 | significantly down-regulate | – |
| O=C(Nc1ccc(-c2ccc3ncc4ccc(=O)n(-c5cccc(C(F)(F)F)c5)c4c3c2)cn1)Oc1ccccc1 [HTL-7-15, 9-[3-(6-phenoxyamido)pyridyl]-2-oxo-1-[3-(trifluoromethyl)phenyl]-1,2-dihydrobenzo[h][1,6]naphthyridine] | – | – | significantly down-regulate | 90 ± 20 |
| Nc1cccc(Nc2ccc3ncc4ccc(=O)n(-c5cccc(C(F)(F)F)c5)c4c3c2)c1 [HTL-6-11, 9-(3-aminophenyl)imino-2-oxo-1-[3-(trifluoromethyl)phenyl]-1,2-dihydrobenzo[h][1,6]naphthyridine] | moderate activity | 890 | significantly down-regulate | – |
| CC(C)(C)OC(=O)Nc1ccc(-c2ccc3ncc4ccc(=O)n(-c5cccc(C(F)(F)F)c5)c4c3c2)cn1 [HTL-7-21, 9-[3-(6-tert-butoxycarbonylamino)pyridyl]-2-oxo-1-[3-(trifluoromethyl)phenyl]-1,2-dihydrobenzo[h][1,6]naphthyridine] | – | 2080 ± 2290 | significantly down-regulate | – |
| O=c1ccc2cnc3ccc(-c4ccc5ncccc5c4)cc3c2n1-c1cccc(C(F)(F)F)c1 [HTL-6-47, 9-(6-quinolyl)-2-oxo-1-[3-(trifluoromethyl)phenyl]-1,2-dihydrobenzo[h][1,6]naphthyridine] | – | 250 ± 230 | significantly down-regulate | – |
| COc1ncc(-c2ccc3ncc4ccc(=O)n(-c5cccc(C(F)(F)F)c5)c4c3c2)cn1 [HTL-7-06, 9-[5-(2-methoxy)pyrimidyl]-2-oxo-1-[3-(trifluoromethyl)phenyl]-1,2-dihydrobenzo[h][1,6]naphthyridine] | – | 50 ± 10 | significantly down-regulate | – |
| CCCCC(=O)Nc1ccc(-c2ccc3ncc4ccc(=O)n(-c5cccc(C(F)(F)F)c5)c4c3c2)cn1 [HTL-7-08, 9-[3-(6-valerylamino)pyridyl]-2-oxo-1-[3-(trifluoromethyl)phenyl]-1,2-dihydrobenzo[h][1,6]naphthyridine] | – | 200 ± 20 | significantly down-regulate | – |
